Assay results reported in patent US20080003254A1, “SYSTEMS AND METHODS FOR DELIVERING A RAPAMYCIN ANALOG THAT DO NOT INHIBIT HUMAN CORONARY ARTERY ENDOTHELIAL CELL MIGRATION” (ABBOTT LABORATORIES, priority 2006, published 2008).

Columns and labels:
[1] = test system: human coronary artery endothelial cells (hCaEC); experiment: hCaEC migration in modified Boyden chambers; type: cell-based; details: for effect on full growth media induced hCaEC migration: 24 hours drug pretreatment in hCaEC full growth media, drug present during migration, FIG. 2; for effect on FBS-induced hCaEC migration: 24 hours drug pretreatment in growth media, migration in response to 5% FBS without additional growth factors, FIG. 3; for effect on hCaEC migration: FIG. 1A
Method: (§1) The cancer chemotherapeutic, paclitaxel is hypothesized to directly interfere with microtubule homeostasis leading to the inhibition of EC migration and proliferation, which can lead to increased thrombosis. Reduced p70S6K activation alone will not result in anti-migratory activity. To examine the comparative effects of sirolimus, zotarolimus, dexamethasone, and paclitaxel on human coronary artery smooth muscle and endothelial cell migration, studies were conducted using modified Boyden chambers. As such, EC migration in response to HFGF, HEGF, VEGF, R^3-IGF-1 and FBS was determined using a modified Boyden chamber. Migration was induced using a variety of chemotactic stimuli including fetal bovine serum (FBS) in the presence and absence of growth factors as well as […] homodimer B (PDGF-BB). Anti-migratory activity was assessed after acute drug treatment and after pretreatment (24 hours) in basal or growth conditions.
(§2) Primary human coronary artery smooth muscle (hCaSMC) and endothelial cells (hCaEC) obtained from Cambrex (Walkersville, Md.) were routinely maintained in media recommended by the manufacturer. The hCaSMC were grown in a smooth muscle growth medium (“minimal media”, SmnBM, Cambrex) supplemented with the appropriate SingleQuot® to yield the complete medium containing 5% FBS, 0.1% hEGF, 0.2% hFGF-B, and 0.1% insulin (hCaSMC growth media). The hCaEC were maintained in the corresponding complete medium consisting of an endothelial cell growth medium (“minimal media”, EBM-2, Cambrex) supplemented with the appropriate SingleQuot® to yield the complete medium containing 5% FBS, 0.1% HEGF-B, 0.4% FGF, 0.1% R3-IGF, 0.04% hydrocortisone, 0.1% VEGF, and 0.1% ascorbic acid (hCaEC growth media). Cells were routinely propagated in the appropriate medium in humidified incubators maintained at 37° C. in an atmosphere containing 5% CO2. When necessary, each cell type was passed at 75% confluence.
(§3) Cells were maintained and used prior to 7 population doublings in all experiments. To expand cells prior to assay, frozen hCaSMC or hCaEC cells were thawed and cultured in T-162 flasks in smooth muscle growth medium (SmGM) or endothelial cell growth medium-2 (EGM-2), respectively, with the appropriate supplements. The cell medium was changed the next day and then every other day until cells reached 70-90% confluency. Growth medium was removed and cells were rinsed twice with PBS (without Ca^2+ and Mg^2+). To detach cells, sufficient trypsin/EDTA (3 ml) was added to cover the cell monolayer and the flask incubated at room temperature. After cells detached, trypsin was neutralized by addition of 6 ml complete medium. Cells were counted, transferred to a 50 ml tube and centrifuged. The cell pellet was re-suspended in growth medium to the appropriate cell density for experiments.
(§4) Cells (hCaEC or hCaSMC) were synchronized for 24 hours in basal media prior to all migration experiments. In acute studies, cells were collected, counted, and 200,000 hCaEC or 160,000 hCaSMC placed in the upper chambers of modified boyden chambers in 24 well plates (BD Biosciences). Plates contained microporous Fluoroblok membranes of 3.0 and 8.0 um for hCaEC and hCaSMC, respectively (Beckton Dickensen Biosciences). Chambers used in hCaEC migration experiments were coated with fibronectin (BD BioCoat). In pretreatment experiments, cells were synchronized in the presence of drug or treated for 24 hours in growth media after synchronization but prior to cell counting and migration. All cells were resuspended in basal media containing drugs or solvent (control) prior to migration. Cells were allowed to migrate in response to chemotatic agents for 22-24 hours. After migration, cells were stained with calcein-AM for 90 minutes and fluorescence determined using a plate reader capable of measuring fluorescence emitted by the bottom of the microporous filter. […]

[2] = test system: p70S6K (T389) phosphorylation; experiment: Western blot of p70S6K (T389) phosphorylation in hCaEC; type: cell-based, human; details: for effect on p70S6K T389 phosphorylation in hCaEC: 300 nM drug in growth media for 36 hours after 24 hours synchronization, FIG. 6A
Method: Human Coronary Endothelial Cells (hCaEC, Cambrex) were seeded on 100 mm plastic dishes (1-3×10^5 cells per dish) and incubated at 37° C. with 5% CO2 in complete growth media containing hFGF, HEGF, VEGF, R^3-IGF-1 and 5% FBS (GM). Cells were allowed to grow until dishes were 30-40% confluent. Cells were synchronized by incubation in basal media without supplements (BM) for 24 h. After synchronization the BM was replaced with GM containing test compounds, DMSO and BSA (Experimental dish: GM containing 300 nM test compounds, 0.1% BSA; Positive control: GM containing 0.1% BSA and 0.1% DMSO; Negative control: BM containing 0.1 or 0.5% FBS, 0.1% BSA and 0.1% DMSO).
Cells were incubated for 24 or 36 hours at 37° C. with 5% CO2. After which dishes were 50-70% confluent. Dishes were rinsed with warm PBS to remove excess FBS and than placed on ice. Whole cell lysates were prepared by adding 150-200 ul of RIPA lysis buffer at 4° C. (50 mM Tris HCl pH 8, 150 mM NaCl, 1% NP-40, 0.5% sodium deoxycholate, 0.1% SDS, 2 mM PMSF, 1 mM sodium orthovanadate, and protease inhibitor cocktail, Santa Cruz Biotechnology) to the culture dishes and collected by scrapping the plate surface with a cell scrapper. Lysates were transferred to 1 ml eppendorf tubes and incubated on ice with vortexing for 30 min. Samples were than centrifuged for 8 min at 10000 rpm. […]
The total protein concentration of the samples was determined by a modification of the method of Bradford (Quick Start Bradford Microplate Standard Assay, Bio-Rad) with bovine γ-globulin as a standard.
Total volume of the loaded sample was 45 ul containing 15 ul of 3× sample buffer (Laemmli Sample Buffer, Bio Rad), and sample (30 ul) containing 25 to 50 ug of protein. […] Denaturated samples were separated in 4-15% gradient or 12% Ready Tris-HCl gels (Bio-Rad) in running buffer 25 mM Tris, pH 8.3, 192 mM glycine, 0.1% SDS at 150-180 V for 60-90 minutes and transferred to Hybond-ECL membrane (Amersham Biosciences) in 25 mM Tris, pH 8.3, 192 mM glycine, 20% methanol at 100 V for 1 hour. […]

[3] = test system: p70S6K (T389) phosphorylation; experiment: Western blot of p70S6K (T389) phosphorylation in hCaSMC; type: cell-based, human; details: 300 nM drug for 36 hours after 24 hours synchronization; FIG. 7
Method: To determine if inhibition of p70S6K was involved in serum-induced migration Western blot experiments were performed on hCaEC and hCaSMC treated using an experimental paradigm similar to those of the migration experiments. Cells were synchronized for 24 hours in basal media followed by drug treatment in growth media for 36 hours. The effects of drug treatment on p70S6K T389 phosphorylation in hCaEC are illustrated in FIG. 6A-6B.
The hCaSMC were synchronized for 24 hours in basal media and incubated in growth media with or without drugs (300 nM) for 36 hours […]. Membranes were probed with a rabbit anti-phospho-p70S6K (T389) monoclonal antibody (Cell Signaling). […] Furthermore, the anti-migratory activity of the mTOR antagonists is not likely to contribute to their anti-restenotic activity. Conversely, paclitaxel is a potent anti-migratory agent and this effect is likely to contribute to it's anti-restenotic activity.

[4] = test system: human coronary artery smooth muscle cells (hCaSMC); experiment: hCaSMC migration in modified Boyden chambers; type: cell-based; details: for effect on FBS-induced hCaSMC migration: 24 hours drug pretreatment in growth media, migration in response to FBS alone, FIG. 4; for effect on PDGF-BB stimulated hCaSMC migration: 24 hours pretreatment, PDGF-BB (25 ng/ml), FIG. 5
Method: as §1, §2, §3, §4

pRb phosphorylation = pRb phosphorylation (Western blot, hEC); type: cell-based, human
Description: Western blots have shown the levels of specific proteins using antibodies to those proteins in response to the rapamycin analog (e.g., zotarolimus). […] It has been shown that paclitaxel and zotarolimus inhibit the activation of p70S6K.
Additionally, it has been shown that paclitaxel, but not zotarolimus or dexamethasone, inhibits migration of human coronary artery endothelial cells in vitro. […] Paclitaxel blocks migration, however, all agents reduce p70S6K (T389) phosphorylation. […] Dexamethasone and zotarolimus are not predicted to inhibit re-endothelialization of vascular legions, and dexamethasone may promote re-endothelialization of vascular lesions. In contrast, paclitaxel inhibits re-endothelialization by blocking endothelial cell and/or smooth muscle cell migration.

[5] = acute drug exposure, no pretreatment, 5% FBS, 22 hour migration

SMILES	effect on full growth media induced hCaEC migration [1]	effect on p70S6K T389 phosphorylation in hCaEC [2]	effect on p70S6K T389 phosphorylation in hCaSMC [3]	effect on FBS-induced hCaSMC migration [4]	effect on PDGF-BB stimulated hCaSMC migration [4]	IC50 ([4]; Homo sapiens, acute drug exposure, no pretreatment, 5% FBS, 22 hour migration, read-out: IC50 of inhibition of hCaSMC migration) [nM]	Emax ([4]; Homo sapiens, acute drug exposure, no pretreatment, 5% FBS, 22 hour migration, read-out: maximal efficacy of inhibition of hCaSMC migration) [%]	effect on FBS-induced hCaEC migration [1]	Emax ([1]; Homo sapiens, Endothelial cell, acute drug exposure, no pretreatment, 5% FBS, 22 hour migration, mean±SEM, n=3, read-out: maximal efficacy of inhibition of hCaEC migration) [%]	IC50 ([1]; Homo sapiens, Endothelial cell, acute drug exposure, no pretreatment, migration induced by 5% FBS, 22 hour migration, mean±SEM, n=3, FIG. 1C, read-out: IC50 of inhibition of hCaEC migration) [nM]	effect on hCaEC migration [1, 5]	p70S6K T389 to actin ratio compared to growth controls (densitometry) ([2]; hCaEC, 300 nM drug, FIG. 6B)	effect on pRb phosphorylation (pRb phosphorylation)
CO[C@H]1C[C@@H]2CC[C@@H](C)[C@@](O)(O2)C(=O)C(=O)N2CCCC[C@H]2C(=O)O[C@H]([C@H](C)C[C@@H]2CC[C@@H](OCCO)[C@H](OC)C2)CC(=O)[C@H](C)/C=C(\C)[C@@H](O)[C@@H](OC)C(=O)[C@H](C)C[C@H](C)/C=C/C=C/C=C/1C [everolimus]	only paclitaxel inhibits	–	–	–	–	–	–	–	–	–	–	–	–
CC(=O)O[C@H]1C(=O)[C@@]2(C)[C@H]([C@H](OC(=O)c3ccccc3)[C@]3(O)C[C@H](OC(=O)[C@H](O)[C@@H](NC(=O)c4ccccc4)c4ccccc4)C(C)=C1C3(C)C)[C@]1(OC(C)=O)CO[C@@H]1C[C@@H]2O [paclitaxel]	inhibits	reduces T389 phosphorylation	reduces p70S6K	significantly blocks	inhibited migration	87.4 ± 18	86.9 ± 2.9	significantly blocks	96.8 ± 1.8	28.2 ± 3.4	–	–	–
CO[C@H]1C[C@@H]2CC[C@@H](C)[C@@](O)(O2)C(=O)C(=O)N2CCCC[C@H]2C(=O)O[C@H]([C@H](C)C[C@@H]2CC[C@@H](O)[C@H](OC)C2)CC(=O)[C@H](C)/C=C(\C)[C@@H](O)[C@@H](OC)C(=O)[C@H](C)C[C@H](C)/C=C/C=C/C=C/1C [sirolimus]	–	–	–	–	–	–	–	–	–	–	no effect	–	–
CO[C@H]1C[C@@H]2CC[C@@H](C)[C@@](O)(O2)C(=O)C(=O)N2CCCC[C@H]2C(=O)O[C@H]([C@H](C)C[C@@H]2CC[C@H](n3cnnn3)[C@H](OC)C2)CC(=O)[C@H](C)/C=C(\C)[C@@H](O)[C@@H](OC)C(=O)[C@H](C)C[C@H](C)/C=C/C=C/C=C/1C [zotarolimus]	only paclitaxel inhibits	completely block	completely inhibit	did not significantly block	inhibited migration	–	–	did not significantly block	–	–	no effect	significant inhibition	reduces pRb phosphorylation
